# Entries after “also recorded” stand apart in the source; their conditions may differ.
# Columns and labels:
# Type in all cases: cell-based, human
# [1] = test system: T84 monolayers co-cultured with CD3/28-activated PBMC; assay: T84/PBMC co-culture, barrier integrity by transepithelial electrical resistance (TER); details: for TER of T84 monolayers: apical exposure, 24 h and 48 h, vs medium control; for PBMC-induced disruption of intestinal epithelial barrier integrity (injurious effects of activated PBMC): PBMC from food allergy patients, agonist on apical side of T84 cells, FIG. 3
# Description: (§1) The T84 cells are grown in DMEM/F-12 (1:1) supplemented with GlutaMAX®, 10% fetal bovine serum and […] penicillin/streptomycin. (T84 cells (human colorectal carcinoma cell line, ATCC® CCL-248™, Manassas, Va., USA). T84 cells were seeded in 12-well transwell insert filters (Coming Inc., NY, USA) and cultured in T84 cell medium for 3-4 weeks till co-culture with PBMC. Transepithelial electrical resistance (TER) was measured during culture, which generally increases to >1500 Ω×cm^2 and becomes stable after 3-4 weeks of culture. When TER was ≥2000 Ω×cm^2, T84 monolayers 14 were co-cultured with 1.5×10^6 PBMC 16 in the basolateral chamber.
# (§2) The PBMC 16 for use in the co-cultures are isolated from 20 mL fresh blood from healthy controls (n=6) and subjects with food allergy (n=8) (Table 1). The average age of healthy controls was 36 (range 24-54) vs. 51 (range 26-74) for food allergic subjects (P>0.05). PBMC were isolated by density gradient centrifugation using lymphocyte separation medium according to manufacturer's protocol (Cellgro, Mediatec, Inc., Manassas, Va., USA). PBMC were collected in RPMI1640 supplemented with L-glutamine (Gibco), 2.5% fetal bovine serum, 1% penicillin/streptomycin and 1% sodium pyruvate (Sigma, St. Louis, Mo., USA) (PBMC medium) at 1×10^6 cell/mL.
# (§3) T84/PBMC co-cultures were maintained in PBMC medium. PBMC were stimulated using CD3 and CD28 antibodies (clone OKT3 and CD28.2, 0.2 μg/mL; eBioscience, San Diego, Calif., USA) and simultaneously IEC were stimulated apically with Pam3CSK4, LPS or type C CpG oligonucleotide M362 (Invivogen, San Diego, Calif., USA) as previously described. Cultures were maintained at 37° C./5% CO2 for indicated time points.
# (§4) The barrier integrity of T84 monolayers was assessed by measuring the TER and paracellular permeability to 4 kDa FITC-dextran. In short, TER was measured using a dual electrode system designed for cell culture insert analysis (EVOM; World Precision Instruments, Sarasota, Fla.) prior to co-culture and at indicated time points during co-culture. Data is reported as percentage of the initial TER value measured before co-culture. For assessment of permeability, T84 monolayers were separated from PBMC and cultured in PBMC medium for 1 h. The monolayers were then apically exposed to 1 mg/mL 4 kDa FITC-dextran (Sigma) and basolateral supernatants were collected after 60 min. FITC-dextran was measured at excitation wavelength 485 nm and emission wavelength 520 nm. The 4 kDa FITC-dextran flux was expressed as pmol/(h×cm^2).
# In some experiments, PBMC are stimulated using antibodies against CD3 and CD28 and T84 cell monolayers were simultaneously exposed to synthetic TLR ligands or fermentation product 12 (co-culture of stool samples without or with different prebiotics). SCFA content (acetate, propionate and butyrate) in the fermentation products (“Fermenta”) 12 was analyzed by HPLC. TER was measured at t=0 h, t=4 h, t=18 h and t=24 h to monitor changes in the barrier integrity of the T84 monolayers. Non-limiting example of prebiotics include commercially available inulin and fructose oligosaccharides (FOS) that promote production of Butyrate by intestinal bacteria, galactose oligosaccharides (GOS) that promote growth of bifidobacteria in the intestine or prebiotics like resistant starch, corn arbionoxylan that promotes propionate. Other prebiotics may also be used.
# [2] = test system: T84 monolayers co-cultured with CD3/28-activated PBMC; assay: T84/PBMC co-culture, paracellular permeability to 4 kDa FITC-dextran; details: 48 h co-culture, vs medium control
# Description: as §1, §2
# T84/PBMC co-cultures were maintained in PBMC medium. […]
# as §4, with “For assessment of permeability, T84 monolayers were separated from PBMC and cultured in PBMC medium for 1 h. The monolayers were then apically exposed to 1 mg/mL 4 kDa FITC-dextran (Sigma) and basolateral supernatants were collected after 60 min.” left out
# [3] = test system: T84/PBMC co-cultures; assay: Cytokine production in T84/PBMC co-cultures with apical TLR ligands (ELISA); details: for IL-6 / IFN-γ / IL-8 / IL-10 / IL-13 / TNF-α: T84/PBMC, mean ± SEM; for IL-6 / IFN-γ / IL-8 / IL-10 / IL-13 / TNF-α / IFN-γ/IL-13 ratio: 24 h; for IL-10/IL-13 ratio / IFN-γ/IL-13 ratio / IL-10/IFN-γ: T84/PBMC co-cultures; for IL-10/IL-13 ratio / IFN-γ/IL-13 ratio: vs medium; for IL-10/IFN-γ: apical exposure
# Description: as §1, §2, §3
# (§5) Cytokine levels were measured by ELISA. IL-6, IL-8, IL-10, IL-13, IFN-γ and TNF-α were measured using the Ready-Set-Go!® ELISA kit from eBioscience according to manufacturer's protocol (eBioscience, Inc., San Diego, Calif., USA).
# (§6) To evaluate whether epithelial TLR ligation modulates cytokine production by the PBMC, basolateral supernatants were collected 24 h after co-culture. Exposure of CD3/28-activated PBMC in the absence of IEC to TLR ligands served as a control to evaluate the contribution of IEC in modulating the cytokine production by PBMC. First we evaluated the production of IFN-γ and IL-13 as a reflection of a Th1 and Th2 type effector response (Table 3). No significant changes in the production of IFN-γ or IL-13 were observed, though IFN-γ production by the PBMC from food allergic subjects tended to be lower in T84/PBMC co-cultures (P=0.093). […] This was not observed when PBMC were stimulated with CpG DNA in absence of T84 cells (FIG. 7B).
# [4] = test system: PBMC; assay: Cytokine production by CD3/28-activated PBMC in absence of T84 cells (ELISA); details: for IFN-γ / IL-6 / IL-8 / IL-10 / IL-13 / TNF-α / IFN-γ/IL-13 ratio: PBMC in absence of T84 cells, 24 h; for IFN-γ / IL-6 / IL-8 / IL-10 / IL-13 / TNF-α: mean ± SEM; for IL-10/IL-13 ratio: absence of T84 cells
# Description: as §2, §3, §5, §6
# [5] = PBMC from food allergic subjects
substance,measurement,setting,value
Pam3CSK4,TER of T84 monolayers,[1]; [5],did not affect
same,TER of T84 monolayers,[1]; PBMC from healthy controls,did not affect
same,permeability of T84 monolayers to 4 kDa FITC-dextran,[2]; PBMC from healthy controls,increased the permeability
same,IL-6,[3]; FA (food allergy) PBMC,5968 ± 1324 pg/mL
same,IFN-γ,[3]; FA PBMC,6533 ± 2125 pg/mL
same,IL-8,[3]; FA PBMC,16854 ± 4954 pg/mL
same,IL-10,[3]; FA PBMC,853.3 ± 212.9 pg/mL
same,IL-13,[3]; FA PBMC,40.8 ± 12.1 pg/mL
same,TNF-α,[3]; FA PBMC,2251 ± 534 pg/mL
same,IL-6,[3]; HC (healthy control) PBMC,7209 ± 1531 pg/mL
same,IFN-γ,[3]; HC PBMC,8614 ± 2455 pg/mL
same,IL-8,[3]; HC PBMC,23052 ± 5527 pg/mL
same,IL-10,[3]; HC PBMC,581.1 ± 110.7 pg/mL
same,IL-13,[3]; HC PBMC,37.8 ± 9.2 pg/mL
same,TNF-α,[3]; HC PBMC,3073 ± 509 pg/mL
same,IFN-γ,[4]; FA,2824 ± 1163 pg/mL
same,IL-6,[4]; FA,8073 ± 2055 pg/mL
same,IL-8,[4]; FA,32940 ± 4869 pg/mL
same,IL-10,[4]; FA,422.8 ± 98.6 pg/mL
same,IL-13,[4]; FA,59.4 ± 15.2 pg/mL
same,TNF-α,[4]; FA,979.1 ± 244^ pg/mL
same,IFN-γ,[4]; HC,5663 ± 1768 pg/mL
same,IL-6,[4]; HC,9472 ± 2153 pg/mL
same,IL-8,[4]; HC,43737 ± 2856 pg/mL
same,IL-10,[4]; HC,254.7 ± 135.4 pg/mL
same,IL-13,[4]; HC,59.2 ± 17.0 pg/mL
same,TNF-α,[4]; HC,2206 ± 1155 pg/mL
type C CpG oligonucleotide M362 [CpG DNA],TER of T84 monolayers,[1]; [5],prevented PBMC-induced barrier disruption; also recorded: increased
same,PBMC-induced disruption of intestinal epithelial barrier integrity (injurious effects of activated PBMC),[1]; listed as TLR9 agonist,prevented
same,PBMC-induced disruption of intestinal epithelial barrier integrity (injurious effects of activated PBMC),[1]; listed as TLR-9 agonist,significantly blunted
same,TER of T84 monolayers,[1]; PBMC from healthy controls,prevented PBMC-induced barrier disruption; also recorded: increased
same,permeability of T84 monolayers to 4 kDa FITC-dextran,[2]; [5],reduced epithelial permeability
same,"production of IL-6, IL-8 and TNF-α by PBMC","[3]; T84/PBMC co-culture, PBMC from both healthy controls and food allergic subjects, in words",suppressed
same,IL-10/IL-13 ratio,[3]; PBMC from food allergic patients,significantly increased
same,IFN-γ/IL-13 ratio,[3]; food allergic subjects,enhanced; also recorded: increased
same,IL-10/IFN-γ,[3]; food allergic subjects,0.19±0.06
same,IFN-γ/IL-13 ratio,[3]; healthy controls,enhanced; also recorded: increased
same,IL-10/IFN-γ,[3]; healthy controls,0.12±0.06
same,IL-10/IL-13 ratio,[3]; healthy donor PBMC,tended to increase
same,IL-6,[3]; FA (food allergy) PBMC,6400 ± 1671 pg/mL
same,IFN-γ,[3]; FA PBMC,7040 ± 2454 pg/mL
same,IL-8,[3]; FA PBMC,15733 ± 4509 pg/mL
same,IL-10,[3]; FA PBMC,834 ± 233.6 pg/mL
same,IL-13,[3]; FA PBMC,35.9 ± 10.5 pg/mL
same,TNF-α,[3]; FA PBMC,2092 ± 493 pg/mL
same,IL-6,[3]; HC (healthy control) PBMC,7291 ± 1376 pg/mL
same,IFN-γ,[3]; HC PBMC,10731 ± 3289 pg/mL
same,IL-8,[3]; HC PBMC,20758 ± 5247 pg/mL
same,IL-10,[3]; HC PBMC,652.8 ± 105.5 pg/mL
same,IL-13,[3]; HC PBMC,27.5 ± 7.5 pg/mL
same,TNF-α,[3]; HC PBMC,2531 ± 552 pg/mL
same,Th1/Th2 balance of the effector immune response,"[3]; apical exposure of T84 monolayers, FIG. 4, listed as TLR9 agonist",shifts the balance of the effector immune response away from the allergy-associated Th2 response; also recorded: reversed the Th1/Th2 balance away from the allergic TH2 phenotype
same,IFN-γ,[4]; FA,3945 ± 1543 pg/mL
same,IL-6,[4]; FA,5940 ± 2450 pg/mL
same,IL-8,[4]; FA,25420 ± 6779 pg/mL
same,IL-10,[4]; FA,477.3 ± 157.7 pg/mL
same,IL-13,[4]; FA,39.9 ± 12.8 pg/mL
same,TNF-α,[4]; FA,1199 ± 437 pg/mL
same,IFN-γ,[4]; HC,2394 ± 966 pg/mL
same,IL-6,[4]; HC,2564 ± 824 pg/mL
same,IL-8,[4]; HC,19912 ± 2430 pg/mL
same,IL-10,[4]; HC,391.9 ± 149.3 pg/mL
same,IL-13,[4]; HC,19.5 ± 3.8 pg/mL
same,TNF-α,[4]; HC,1024 ± 213 pg/mL
same,IFN-γ/IL-13 ratio,[4]; food allergic subjects,not observed
same,IFN-γ/IL-13 ratio,[4]; healthy controls,not observed
same,IL-10/IL-13 ratio,[4]; [5],did not affect
same,IL-10/IL-13 ratio,[4]; PBMC from healthy controls,enhanced
same,"production of IL-6, IL8 and TNF-α","[4]; direct stimulation of PBMC from food allergic subjects, in words",did not suppress
same,pro-inflammatory cytokine production,"[4]; direct stimulation of PBMC from healthy controls, in words",reduced
